Results published in patent publication US9817000B2, “Method for identifying compounds that modulate a T2R taste receptor” (The Regents of the University of California, priority 1999, dated 2017).
pEC50, pKd: −log10 of the molar value.

What was measured:
mT2R5 = molecular target: T1, mT2R5 (Mus musculus, UniProt Q9JKT4); experiment: FURA-2 [Ca2+]i imaging in HEK-293 cells expressing Gα15 and rho-mT2R5 (taster, DBA/2 allele); assay type: cell-based; conditions: for [Ca2+]i response (FURA-2): 1.5 μM cycloheximide
T1 construct: expressed in transfected cells; host or cells: modified HEK-293 cells (PEAKrapid) expressing Gα15; pEAK10 vector
T1 sequence (Q9JKT4 1-300): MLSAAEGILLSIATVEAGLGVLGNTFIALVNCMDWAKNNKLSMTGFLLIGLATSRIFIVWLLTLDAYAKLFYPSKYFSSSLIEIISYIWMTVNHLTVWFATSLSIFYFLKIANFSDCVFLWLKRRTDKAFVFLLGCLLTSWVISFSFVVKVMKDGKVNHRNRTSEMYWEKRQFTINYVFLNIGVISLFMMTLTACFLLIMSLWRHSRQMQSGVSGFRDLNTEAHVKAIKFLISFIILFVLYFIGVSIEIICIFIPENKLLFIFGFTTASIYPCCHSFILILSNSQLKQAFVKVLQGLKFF
From the text: In this system, receptor activation leads to increases in intracellular calcium [Ca2+]i, which can be monitored at the single cell level using the FURA-2 calcium-indicator dye (Tsien et al., Cell Calcium 6:145-157 (1985)). To test and optimize Gα15 coupling, two different GPCRs, a Gαi-coupled μ-opioid receptor (Reisine, Neuropharm. 34:463-472 (1995)) and a Gαq-coupled mGluR1 receptor (Masu et al., Nature 349:760-765 (1991)), were used. Transfection of these receptors into HEK-293 cell produced robust, agonist-selective, and Gα15-dependent Ca^2+ responses (FIG. 1).
A number of studies have shown that many GPCRs, in particular sensory receptors, require specific “chaperones” for maturation and targeting through the secretory pathway (Baker et al., Embo J 13:4886-4895 (1994); Dwyer et al., Cell 93:455-466 (1998)). Recently, Krautwurst et al. (Cell 95:917-926 (1998)) generated chimeric receptors consisting of the first 20 amino acids of rhodopsin and various rodent olfactory receptors. These were targeted to the plasma membrane and functioned as odorant receptors in HEK-293 cells. To determine whether rhodopsin sequences can also help target T2Rs to the plasma membra, rhodopsin-T2R chimeras (rho-T2Rs) were constructed. […] Similar results were obtained with 11 human and 16 rodent T2Rs (see below). To further enhance the level of T2R expression, rho-T2Rs were placed under the control of a strong EF-1α promoter, and introduced as episomal plasmids into modified HEK-293 cells expressing Gα15 (pEAKrapid cells).
A bridge overlap PCR extension technique was used to generate rho-T2R chimeras, which contain the first 39 amino acids of bovine rhodopsin in frame with human and rodent T2R coding sequences (Mehta and Singh, Biotechniques 26:1082-1086 (1999). All receptors were cloned into a pEAK10 mammalian expression vector (Edge Biosystems, MD). Modified HEK-293 cells (PEAK^rapid cells; Edge BioSystems, MD) were grown and maintained at 37° C. in UltraCulture medium (Bio Whittaker) supplemented with 5% fetal bovine serum, 100 μg/ml Gentamycin sulphate (Fisher), 1 μg/ml Amphotericin B and 2 mM GlutaMax I (Lifetechnologies). For transfection, cells were seeded onto matrigel coated 24-well culture plates or 35 mm recording chambers. After 24 h at 37° C., cells were washed in OptiMEM medium (Lifetechnologies) and transfected using LipofectAMINE reagent (Lifetechnologies). Transfection efficiencies were estimated by co-transfection of a GFP reporter plasmid, and were typically >70%. Immunofluoresence staining, and activity assays were performed 36-48 h after transfection.
Transfected cells were washed once in Hank's balanced salt solution with 1 mM sodium pyruvate and 10 mM HEPES, pH 7.4 (assay buffer), and loaded with 2 μM FURA-2 AM (Molecular Probes) for 1 h at room temperature. The loading solution was removed and cells were incubated in 200 μl of assay buffer for 1 h to allow the cleavage of the AM ester. For most experiments, 24-well tissue culture plates containing cells expressing a single rho-T2R were stimulated with 200 μl of a 2× tastant solution (see next section). [Ca^2+]i changes were monitored using a Nikon Diaphot 200 microscope equipped with a 10×/0.5 fluor objective with the TILL imaging system (T.I.L.L Photonics GmbH). Acquisition and analysis of the fluorescence images used TILL-Vision software. Generally, [Ca^2+]i was measured for 80-120 s by sequentially illuminating cells for 200 ms at 340 nm and 380 nm and monitoring the fluorescence emission at 510 nm using a cooled CCD camera. The F340/F380 ratio was analyzed to measure [Ca^2+]i.
Kinetics of activation and deactivation were measured using a bath perfusion system. Cells were seeded onto a 150 μl microperfusion chamber, and test solutions were pressure-ejected with a picospritzer apparatus (General Valve, Inc.). Flow-rate was adjusted to ensure complete exchange of the bath solution within 4-5 s. […]

[1] = molecular target: T2, mT2R5 coupling to gustducin (Mus musculus, UniProt Q9JKT4); experiment: Tastant-induced GTPγS binding to gustducin with insect cell membranes containing rho-mT2R5; assay type: biochemical
T2 construct: infectious Bacmid containing rhodopsin tagged mT2R5 (DBA/2-allele) was produced using the Bac-to-Bac system; rhodopsin tag (rho); made in house; host or cells: insect larval cells infected with recombinant Bacmid (Bac-to-Bac baculovirus system); membrane preparation
T2 sequence (Q9JKT4 1-300): T1 sequence (Q9JKT4 1-300)
Experimental: To investigate the selectivity of T2R-G-protein coupling, mT2R5 was chosen for study because its activation by cycloheximide recapitulates mouse taste responses. Rho-tagged mT2R5 and gustducin were prepared using a baculovirus expression system. mT2R5-containing membranes were incubated with various purified G-proteins, including gustducin, and measured tastant-induced GTP-γS binding (Hoon et al., Biochem J 309:629-636 (1995)). Specifically, infectious Bacmid containing rhodopsin tagged mT2R5 (DBA/2-allele) was produced using the Bac-to-Bac system (Lifetechnologies, MD). Insect larval cells were infected for 60 h with recombinant Bacmid and membranes were prepared as described previously (Ryba and Tirindelli, J Biol Chem, 270:6757-6767 (1995)). Peripheral proteins were removed by treatment with 8 M urea and membranes were resuspended in 10 mM HEPES pH7.5, 1 mM EDTA and 1 mM DTT. The expression of rho-mT2R5 was assessed by Western blot using mAb B6-30 and quantitated by comparison with known amounts of rhodopsin. Approximately 300 pmol of rho-mT2R5 could be obtained from 2×10^8 infected cells. Gustducin and Gβ1γ8 heterodimers were isolated as described previously (Hoon et al., Biochem J 309:629-636 (1995); Ryba and Tirindelli, J Biol Chem, 270:6757-6767 (1995)). Receptor-catalyzed exchange of GDP for GTPγS on gustducin and other G-protein α-subunits was measured in the presence of 10 nM rho-mT2R5, 100 μM GDP, and 20 μM Gβ1γ8. All measurements were made at 15-minute time points, and reflect the initial rate of GTPγS binding.

[Ca2+]i response to tastant (mT2R5; 5 mM)	gustducin activation ([1]; 1 mM)	SMILES	pEC50 (mT2R5)	response of cells expressing mT2R5 (mT2R5)	response to successive applications (mT2R5)	threshold of response (mT2R5) [µM]	[Ca2+]i response (FURA-2) (mT2R5; absence of Gα15)	[Ca2+]i response (FURA-2) (mT2R5; with Gα15)	specificity of [Ca2+]i response (mT2R5; 5 μM)	[Ca2+]i changes in cells lacking receptor or Gα15 (mT2R5; 5000-fold higher concentration)	cells responding (mT2R5; entire camera field) [%]	response to prolonged exposure (mT2R5; exposure >10 s)	response under superfusion (mT2R5; micromolar concentrations)	latency of response (mT2R5; microperfusion chamber) [s]	receptor activation by tastant pulses (mT2R5; multiple pulses of 2 μM)	pKd [1]	coupling of mT2R5 to gustducin [1]	gustducin activation ([1]; 300 μM)
		C[C@@H]1C[C@@H]([C@H](O)CC2CC(=O)NC(=O)C2)C(=O)[C@@H](C)C1 [cycloheximide]	6.30	specifically responded	significantly reduced responses	~0.2	No increase in [Ca2+]i	robust Gα15 dependent responses	highly specific	did not trigger [Ca2+]i changes	> 70	adaptation	robust transient responses	< 1	robust receptor activation	4.83	exquisite cycloheximide-dependent coupling	activate gustducin
not observed	not	CC[N+](CC)(CC(=O)Nc1c(C)cccc1C)Cc1ccccc1 [denatonium]																
